From US7834044B2, “Substituted-2-imidazoles” (Hoffman-LaRoche Inc., priority 2006, dated 2010)
Read-outs that look alike come from different tables or passages of the source.

Molecular target: T1, TAAR1 (Mus musculus, UniProt Q923Y8)
T1 construct: expressed in transfected cells; host or cells: HEK293 (ATCC # CRL-1573), stably transfected with pIRESneo2 expression plasmid; membranes prepared
Experiment: TAAR1 radioligand binding assay on membranes of stably transfected HEK293 cells
Procedure: The ability of the compounds of the present invention to bind to TAAR 1 was investigated in accordance with the test given hereinafter.
The Expand High Fidelity PCR System (Roche Diagnostics) was used with 1.5 mM Mg^2+ and purified PCR products were cloned into pCR2.1-TOPO cloning vector (Invitrogen) following the instructions of the manufacturer. PCR products were subcloned into the pIRESneo2 vector (BD Clontech, Palo Alto, Calif.), and expression vectors were sequence verified before introduction in cell lines.
For the generation of stably transfected cell lines HEK293 cells were transfected with the pIRESneo2 expression plasmids containing the TAAR coding sequences (described above) with Lipofectamine 2000 (Invitrogen) according to the instructions of the manufacturer, and 24 hours post transfection the culture medium was supplemented with 1 mg/ml G418 (Sigma, Buchs, Switzerland). After a culture period of about 10 days, clones were isolated, expanded and tested for responsiveness to trace amines (all compounds purchased from Sigma) with the cAMP Biotrak Enzyme immunoassay (EIA) System (Amersham) following the non-acetylation EIA procedure provided by the manufacturer.
Cells at confluence were rinsed with ice-cold phosphate buffered saline without Ca^2+ and Mg^2+ containing 10 mM EDTA and pelleted by centrifugation at 1000 rpm for 5 min at 4° C. The pellet was then washed twice with ice-cold phosphate buffered saline and cell pellet was frozen immediately by immersion in liquid nitrogen and stored until use at −80° C. The cell pellet was then suspended in 20 ml HEPES-NaOH (20 mM), pH 7.4 containing 10 mM EDTA, and homogenized with a Polytron (PT 3000, Kinematica) at 10,000 rpm for 10 seconds. The homogenate was centrifuged at 48,000×g for 30 minutes at 4° C. and the pellet resuspended in 20 ml HEPES-NaOH (20 mM), pH 7.4 containing 0.1 mM EDTA (buffer A), and homogenized with a Polytron at 10,000 rpm for 10 seconds. The homogenate was then centrifuged at 48,000×g for 30 minutes at 4° C. and the pellet resuspended in 20 ml buffer A, and homogenized with a Polytron at 10,000 rpm for 10 seconds. Protein concentration was determined by the method of Pierce (Rockford, Ill.). The homogenate was then centrifuged at 48,000×g for 10 minutes at 4° C., resuspended in HEPES-NaOH (20 mM), pH 7.0 including MgCl2 (10 mM) and CaCl2 ([…]) (buffer B) at 200 μg protein per ml and homogenized with a Polytron at 10,000 rpm for 10 seconds.
Binding assay was performed at 4° C. in a final volume of 1 ml, and with an incubation time of 30 minutes. […] Non-specific binding was defined as the amount of [^3H]-rac-2-(1,2,3,4-tetrahydro-1-naphthyl)-2-imidazoline bound in the presence of the appropriate unlabelled ligand (10 μM). Competing ligands were tested in a wide range of concentrations (10 pM-30 μM). […] Each experiment was performed in duplicate. All incubations were terminated by rapid filtration through UniFilter-96 plates (Packard Instrument Company) and glass filter GF/C, pre-soaked for at least 2 h in polyethylenimine 0.3%, and using a Filtermate 96 Cell Harvester (Packard Instrument Company). The tubes and filters were then washed 3 times with 1 ml aliquots of cold buffer B. Filters were not dried and soaked in Ultima gold (45 μl/well, Packard Instrument Company) and bound radioactivity was counted by a TopCount Microplate Scintillation Counter (Packard Instrument Company).

[1] = mouse TAAR1, radioligand [3H]-rac-2-(1,2,3,4-tetrahydro-1-naphthyl)-2-imidazoline at 60 nM, 4° C., 30 minutes, read-out: Ki (μM) mouse

T1 sequence (Q923Y8 whole entry): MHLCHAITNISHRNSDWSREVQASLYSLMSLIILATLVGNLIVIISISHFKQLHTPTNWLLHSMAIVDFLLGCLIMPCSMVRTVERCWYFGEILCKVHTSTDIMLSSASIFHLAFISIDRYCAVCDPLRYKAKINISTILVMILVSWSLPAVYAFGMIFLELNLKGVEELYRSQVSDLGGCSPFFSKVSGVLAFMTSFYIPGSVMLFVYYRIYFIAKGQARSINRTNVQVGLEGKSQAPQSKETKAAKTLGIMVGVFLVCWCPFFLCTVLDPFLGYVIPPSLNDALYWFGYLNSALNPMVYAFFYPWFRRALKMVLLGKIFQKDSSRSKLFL

SMILES	Ki	other results
C[C@@H]1c2ccccc2N(Cc2ncc[nH]2)[C@@H]1C (racemic) [Example 14, (2RS,3RS)-1-(1H-Imidazol-2-ylmethyl)-2,3-dimethyl-2,3-dihydro-1H-indole]	0.196 µM	
c1ccc2c(c1)CCCC2C1=NCCN1 (racemic) [[^3H]-rac-2-(1,2,3,4-tetrahydro-1-naphthyl)-2-imidazoline, reference compound]		Kd (radioligand binding to TAAR1 membranes, species not stated, read-out: calculated Kd value of the radioligand): 0.06 µM
c1ccc2c(c1)CCN2Cc1ncc[nH]1 [Example 1, 1-(1H-Imidazol-2-ylmethyl)-2,3-dihydro-1H-indole]	0.0289 µM	
Brc1ccc2c(c1)CCN2Cc1ncc[nH]1 [Example 4, 5-Bromo-1-(1H-imidazol-2-ylmethyl)-2,3-dihydro-1H-indole]	0.055 µM	
CCc1cccc2c1N(Cc1ncc[nH]1)CC2 [Example 15, 7-Ethyl-1-(1H-imidazol-2-ylmethyl)-2,3-dihydro-1H-indole]	0.0435 µM	
Clc1ccc2c(c1)N(Cc1ncc[nH]1)CC2 [Example 16, 6-Chloro-1-(1H-imidazol-2-ylmethyl)-2,3-dihydro-1H-indole]	0.035 µM	
Clc1cccc2c1CCN2Cc1ncc[nH]1 [Example 17, 4-Chloro-1-(1H-imidazol-2-ylmethyl)-2,3-dihydro-1H-indole]	0.0362 µM	
COc1cccc2c1N(Cc1ncc[nH]1)CC2 [Example 20, 1-(1H-Imidazol-2-ylmethyl)-7-methoxy-2,3-dihydro-1H-indole]	0.118 µM	
COc1cccc2c1CCN2Cc1ncc[nH]1 [Example 23, 1-(1H-Imidazol-2-ylmethyl)-4-methoxy-2,3-dihydro-1H-indole]	0.115 µM	
Clc1cccc2c1N(Cc1ncc[nH]1)CC2 [Example 24, 7-Chloro-1-(1H-imidazol-2-ylmethyl)-2,3-dihydro-1H-indole]		Ki [1]: 0.0557 µM
Brc1ccc2c(c1)CCCN2Cc1ncc[nH]1 [Example 25, 6-Bromo-1-(H-imidazol-2-ylmethyl)-1,2,3,4-tetrahydro-quinoline]		Ki [1]: 0.0951 µM
Cc1ccc2c(c1)N(Cc1ncc[nH]1)CC2 [Example 26, 1-(1H-Imidazol-2-ylmethyl)-6-methyl-2,3-dihydro-1H-indole]		Ki [1]: 0.129 µM
Cc1cccc2c1N(Cc1ncc[nH]1)CC2 [Example 32, 1-(1H-Imidazol-2-ylmethyl)-7-methyl-2,3-dihydro-1H-indole]	0.173 µM	
Cc1cccc2c1CCN2Cc1ncc[nH]1 [Example 33, 1-(1H-Imidazol-2-ylmethyl)-4-methyl-2,3-dihydro-1H-indole]	0.125 µM	
c1ccc(COc2cccc3c2CCCN3Cc2ncc[nH]2)cc1 [Example 38, 5-Benzyloxy-1-(1H-imidazol-2-ylmethyl)-1,2,3,4-tetrahydro-quinoline]		Ki [1]: 0.0513 µM
c1ccc(Oc2cccc3c2CCCN3Cc2ncc[nH]2)cc1 [Example 42, 1-(1H-Imidazol-2-ylmethyl)-5-phenoxy-1,2,3,4-tetrahydro-quinoline]	0.0046 µM	
